According to paper PMC6497007, “Development, Validation of LC-MS/MS Method and Determination of Pharmacokinetic Parameters of the Stroke Neuroprotectant Neurounina-1 in Beagle Dog Plasma After Intravenous Administration” (Frontiers in Pharmacology, 2019):
Where two headings read alike, the source gives them in different places.

Key:
NCX1 and NCX2 = tested on: NCX1 and NCX2; parameters: method as in Molinaro et al., 2013; conditions: ref Molinaro et al., 2013; cited from earlier work
[1] = ref Molinaro et al., 2013; cited from earlier work
[2] = Stability tests in beagle dog plasma (QC samples); format: in vitro ADME
Experimental: To assess stability, QC plasma samples (1.5 and 400.0 ng/mL) were subjected to short-term (6 h) incubation at room temperature; four freeze/thaw (-20°C) cycles and 52 h in the autosampler at room temperature. Subsequently, the neurounina-1 concentrations were measured and compared with freshly prepared samples.

[3] = tested on: transient middle cerebral artery occlusion (tMCAO); parameters: method as in Molinaro et al., 2013; conditions: ref Molinaro et al., 2013, cited from earlier work
beagle dogs = assay: Tolerability in beagle dogs after intravenous administration; format: in vivo, beagle dog; conditions: single i.v. 0.1, 0.3 and 1 mg/kg
Experimental: (§1) Beagle dogs (n = 5) of both sexes, aged between 2 and 3 years old, weighing between 10 and 14 kg were provided by Camilo Castelo Branco University, Brazil. The dogs were housed in Domingos Alves Veterinary Hospital in individual rooms and fed with a standard canine food. They had free access to water. The dogs underwent rigorous veterinary control and were all considered healthy based on physical examination and laboratory analysis performed before initiation and after completion of each occasion of the study. At the end of the study, the animals were returned to their habitat. This study was carried out in accordance with the recommendations of the general ethical guidelines established by the Brazilian Society for Laboratory Animal Science (SBCAL). The protocol was approved by the Committee for Ethics in Animal Use – State University of Campinas (CEUA/UNICAMP, protocol n° 3340-1).
After an overnight (8 h) fasting, a single intravenous dose of 0.1 mg/kg, 0.3 mg/kg, or 1 mg/kg neurounina-1 formulation was administered to beagle dogs, with 7 days washout period between each dose administration. Blood samples (5 mL) from a suitable antecubital vein were collected into heparin-containing tubes before and 0.03, 0.08, 0.17, 0.25, 0.33, 0.5, 1, 2, 3, 4, 6, 8, 12, and 24 h after the administration of each dose. A total of 210 mL of blood was collected during the study. […]

[4] = Pharmacokinetics in plasma after a single intravenous administration to beagle dogs (LC-MS/MS, non-compartmental analysis); format: in vivo, beagle dog; conditions: for C0 / Vd / clearance / k el / half-life: both sexes, beagle, dog, plasma, iv; for C0 / AUC0-inf / AUC0-tlast / AUC%extrap: beagle dog plasma; for k el: read-out: Ke (converted)
Experimental: Aliquots (0.05 mL) of each plasma sample were added to glass tubes followed by 0.05 mL of IS (ropivacaine 100 ng/mL). The tubes were vortexed for 5 s and 0.1 mL of acetonitrile were added. The samples were vortexed for 40 s, again, and then centrifuged at 2000 ×g for 5 min. The obtained supernatants were transferred to microvials for analysis.
Neuronina-1 was separated in a 150 mm × 4.6 mm x 5 μm Phenomenex C18Luna reversed phase analytical column (Phenomenex Inc., CA, United States). The temperature of the column was maintained constant at 65°C. The mobile phase used was composed by methanol/acetonitrile/water (50/40/10, v/v/v) + 0.1% of formic acid + 1 M ammonium formate at a flow rate of 1 mL/min (split 1:3). The auto-sampler was maintained at room temperature.
The mass spectrometer (Quattro Micro – Micromass, Waters, United Kingdom) equipped with an electrospray source in the ESI positive polarity mode (ES+) was configured for multiple reaction monitoring (MRM) to monitor the transitions 365.3 > 83.9 and 275.2 > 126.0, for neurounina-1 and ropivacaine, respectively. […] To optimize all MS parameters, a standard solution of the analyte and IS was infused into the mass spectrometer. The optimized values of ion spray voltage, collision energy, and cone voltage were, respectively 2800 (V), 20 (eV), and 20 (V) for neurounina-1 and 2800 (V), 15 (eV), and 15 (V) for ropivacaine. Data acquisition and analysis were performed using the software Masslynx 4.0 (Waters Corporation, Milford, MA, United States).
as §1
After an overnight (8 h) fasting, a single intravenous dose of 0.1 mg/kg, 0.3 mg/kg, or 1 mg/kg neurounina-1 formulation was administered to beagle dogs, with 7 days washout period between each dose administration. Blood samples (5 mL) from a suitable antecubital vein were collected into heparin-containing tubes before and 0.03, 0.08, 0.17, 0.25, 0.33, 0.5, 1, 2, 3, 4, 6, 8, 12, and 24 h after the administration of each dose. A total of 210 mL of blood was collected during the study. The blood samples treated with sodium heparin were centrifuged at approximately 2000 ×g for 10 min at 4°C and the plasma was stored at -20°C until analysis.
Non-compartmental analysis was used to determine the pharmacokinetic parameters of neurounina-1 after the intravenous administration. The concentration at time zero (C0) was estimated by back-extrapolating from the elimination curve. The area under the plasma concentration vs. time curves from zero to the last detectable concentration (AUC0-tlast) were calculated by applying the linear-log trapezoid rule. Extrapolation of these areas to infinity (AUC0-inf) was done by adding the value Clast/ke to the calculated AUC0-tlast (where Clast = the last detectable concentration). Clearance (CL) was calculated by the formula dose/AUC0-inf. Volume of distribution (Vd) was calculated by the formula CL/ke. The WinNonlin software, version 6.4 (Pharsight Corp, Mountain View, CA, United States) was used. Statistical analysis was performed using GraphPad Prism software, version 3.2 (GraphPad Software, San Diego, California, United States).

[5] = 0.1 mg/kg, mean, 0.1 mg/kg single i.v., beagle dog, n = 5
[6] = 0.1 mg/kg, median, 0.1 mg/kg single i.v., beagle dog, n = 5
[7] = 0.3 mg/kg, mean, 0.3 mg/kg single i.v., beagle dog, n = 5
[8] = 0.3 mg/kg, median, 0.3 mg/kg single i.v., beagle dog, n = 5
[9] = 1 mg/kg, mean, 1 mg/kg single i.v., beagle dog, n = 5
[10] = 1 mg/kg, median, 1 mg/kg single i.v., beagle dog, n = 5
[11] = mean, 0.1 mg/kg single i.v., n = 5
[12] = mean, 0.3 mg/kg single i.v., n = 5
[13] = mean, 1 mg/kg single i.v., n = 5
[14] = median, 0.1 mg/kg single i.v., n = 5
[15] = median, 0.3 mg/kg single i.v., n = 5
[16] = median, 1 mg/kg single i.v., n = 5

Structure (SMILES): O=C1CN=C(c2ccccc2)c2cc([N+](=O)[O-])ccc2N1CN1CCCC1 [Neurounina-1, 7-nitro-5-phenyl-1-(pyrrolidin-1-ylmethyl)-1H-benzo[e][1,4]diazepin-2(3H)-one]
- half maximal effective concentration (EC50) (NCX1 and NCX2): in the picomolar to low nanomolar range
- lipophilicity index [1]: high lipophilicity index
- toxicity [1]: low toxicity
- Stability, Accuracy(%) ([2]; Freeze/thaw (4cycles, -20°C), 1.5 ng/mL, beagle dog plasma): 92.7%
- Stability, Accuracy(%) ([2]; Freeze/thaw (4cycles, -20°C), 400 ng/mL, beagle dog plasma): 101.3%
- Stability, Accuracy(%) ([2]; Post-processing (52 h) in autosampler, 1.5 ng/mL, processed beagle dog plasma): 96.0%
- Stability, Accuracy(%) ([2]; Post-processing (52 h) in autosampler, 400 ng/mL, processed beagle dog plasma): 101.8%
- Stability, Accuracy(%) ([2]; Short-term (6 h) at room temperature, 1.5 ng/mL, beagle dog plasma): 94.7%
- Stability, Accuracy(%) ([2]; Short-term (6 h) at room temperature, 400 ng/mL, beagle dog plasma): 106.5%
- Degradation in stability tests ([2]; four freezing and thawing cycles, 6 h at room temperature, 52 h after processing in the self-injector, beagle dog plasma): no significant degradation
- time after ischemia induction at which the effect was still notable ([3]; 0.003 to 30 μg/kg intraperitoneally, mouse tMCAO): 5 h
- most effective dosage in an animal model of stroke ([3]; administered 3 h after stroke induction): 0.03 µg/kg
- protection in animal model of stroke ([3]; dose of 0.003 μg/Kg, compared with 0.03 μg/Kg): less marked
- tolerability, behavior (beagle dogs): well tolerated
- C0 ([4]; 0.1 mg/kg, mean, 0.1 mg/kg single i.v., back-extrapolated, n = 5): 32.5 ng/mL
- Vd [4, 5]: 130 L
- clearance [4, 5]: 771 mL/min
- k el [4, 5]: 9.72e-05 s⁻¹
- half-life ([4]; 0.1 mg/kg, mean, 0.1 mg/kg single i.v., beagle dog, n = 5, read-out: t1/2 (converted)): 2.14 h
- C0 ([4]; 0.1 mg/kg, median, 0.1 mg/kg single i.v., n = 5): 30.6 ng/mL
- Vd [4, 6]: 127 L
- clearance [4, 6]: 795 mL/min
- k el [4, 6]: 0.000106 s⁻¹
- half-life ([4]; 0.1 mg/kg, median, 0.1 mg/kg single i.v., beagle dog, n = 5, read-out: t1/2 (converted)): 1.67 h
- C0 ([4]; 0.3 mg/kg, mean, 0.3 mg/kg single i.v., back-extrapolated, n = 5): 111 ng/mL
- Vd [4, 7]: 154 L
- clearance [4, 7]: 793 mL/min
- k el [4, 7]: 8.33e-05 s⁻¹
- half-life ([4]; 0.3 mg/kg, mean, 0.3 mg/kg single i.v., beagle dog, n = 5, read-out: t1/2 (converted)): 2.54 h
- C0 ([4]; 0.3 mg/kg, median, 0.3 mg/kg single i.v., n = 5): 100 ng/mL
- Vd [4, 8]: 103 L
- clearance [4, 8]: 591 mL/min
- k el [4, 8]: 8.61e-05 s⁻¹
- half-life ([4]; 0.3 mg/kg, median, 0.3 mg/kg single i.v., beagle dog, n = 5, read-out: t1/2 (converted)): 2.16 h
- C0 ([4]; 1 mg/kg, mean, 1 mg/kg single i.v., back-extrapolated, n = 5): 223 ng/mL
- Vd [4, 9]: 211 L
- clearance [4, 9]: 1150 mL/min
- k el [4, 9]: 9.17e-05 s⁻¹
- half-life ([4]; 1 mg/kg, mean, 1 mg/kg single i.v., beagle dog, n = 5, read-out: t1/2 (converted)): 2.04 h
- C0 ([4]; 1 mg/kg, median, 1 mg/kg single i.v., n = 5): 197 ng/mL
- Vd [4, 10]: 224 L
- clearance [4, 10]: 1250 mL/min
- k el [4, 10]: 8.89e-05 s⁻¹
- half-life ([4]; 1 mg/kg, median, 1 mg/kg single i.v., beagle dog, n = 5, read-out: t1/2 (converted)): 1.94 h
- half-life ([4]; beagle dog, overall statement, read-out: half-life (converted)): ~2 h
- AUC0-inf [4, 11]: 30.10 ng^∗h/mL
- AUC0-tlast [4, 11]: 26.10 ng^∗h/mL
- t1/2 ([4]; mean, 0.1 mg/kg single i.v., beagle dog, n = 5, 0.1 mg/kg): 2.02 h
- AUC0-inf [4, 12]: 122.42 ng^∗h/mL
- AUC0-tlast [4, 12]: 115.81 ng^∗h/mL
- t1/2 ([4]; mean, 0.3 mg/kg single i.v., beagle dog, n = 5, 0.3 mg/kg): 2.36 h
- AUC0-inf [4, 13]: 263.06 ng^∗h/mL
- AUC0-tlast [4, 13]: 257.28 ng^∗h/mL
- t1/2 ([4]; mean, 1 mg/kg single i.v., beagle dog, n = 5, 1 mg/kg): 2.13 h
- AUC0-inf [4, 14]: 26.44 ng^∗h/mL
- AUC0-tlast [4, 14]: 23.00 ng^∗h/mL
- AUC%extrap [4, 14]: 3.42%
- AUC0-inf [4, 15]: 133.20 ng^∗h/mL
- AUC0-tlast [4, 15]: 127.76 ng^∗h/mL
- AUC%extrap [4, 15]: 4.56%
- AUC0-inf [4, 16]: 184.06 ng^∗h/mL
- AUC0-tlast [4, 16]: 179.65 ng^∗h/mL
- AUC%extrap [4, 16]: 4.55%
- Dose linearity of pharmacokinetics ([4]; single i.v. doses up to 1.0 mg/kg, beagle dog): Linear pharmacokinetics
